Measured values as given in PubChem BioAssay (NCI).
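48-hour exposure; five concentrations; linearly interpolated endpoints. TGI denotes the concentration required for complete inhibition of growth.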

How the values were obtained:
Assay in all cases: growth of human tumour cells (NCI), 48 h
[1] = test system: SK-MEL-2 melanoma
[2] = test system: HT29 colon
[3] = test system: M19-MEL melanoma
[4] = test system: SK-OV-3 ovarian
[5] = test system: U251 CNS
[6] = test system: SN12C renal
[7] = test system: SF-268 CNS
[8] = test system: RXF 393 renal
[9] = test system: SF-539 CNS
[10] = test system: A549 NSCLC
[11] = test system: ACHN renal
[12] = test system: TK-10 renal
[13] = test system: SNB-75 CNS
[14] = test system: RPMI-8226 leukemia
[15] = test system: OVCAR-5 ovarian
[16] = test system: HL-60(TB) leukemia
[17] = test system: HCC-2998 colon
[18] = test system: HOP-18 NSCLC
[19] = test system: DMS 114 small cell lung
[20] = test system: LXFL 529 NSCLC
[21] = test system: KM20L2 colon
[22] = test system: K-562 leukemia
[23] = test system: SK-MEL-5 melanoma
[24] = test system: OVCAR-4 ovarian
[25] = test system: M14 melanoma
[26] = test system: NCI-H460 lung
[27] = test system: HOP-92 NSCLC
[28] = test system: LOX IMVI melanoma
[29] = test system: SW-620 colon
[30] = test system: CCRF-CEM leukemia
[31] = test system: DMS 273 small cell lung
[32] = test system: OVCAR-8 ovarian
[33] = test system: HCT-116 colon
[34] = test system: DLD-1 colon
[35] = test system: OVCAR-3 ovarian
[36] = test system: CAKI-1 renal
[37] = test system: UACC-62 melanoma
[38] = test system: NCI-H522 lung
[39] = test system: SNB-78 CNS
[40] = test system: 786-0 renal
[41] = test system: MOLT-4 leukemia
[42] = test system: NCI-H23 lung
[43] = test system: RXF-631 renal
[44] = test system: EKVX NSCLC
[45] = test system: SF-295 CNS
[46] = test system: SK-MEL-28 melanoma
[47] = test system: NCI-H226 lung
[48] = test system: COLO 205 colon
[49] = test system: KM12 colon
[50] = test system: UACC-257 melanoma
[51] = test system: UO-31 renal
[52] = test system: SNB-19 CNS
[53] = test system: IGROV1 ovarian
[54] = test system: HOP-62 NSCLC
[55] = test system: MALME-3M melanoma
[56] = test system: A498 renal
[57] = test system: HCT-15 colon
[58] = test system: SR leukemia

O=S1c2ccc(Cl)cc2CC(SSC2Cc3cc(Cl)ccc3S(=O)c3ccccc32)c2ccccc21 (stereo not drawn)
TGI [1]: > 100 µM | TGI [2]: > 100 µM | TGI [3]: > 100 µM | TGI [4]: > 100 µM | TGI [5]: > 100 µM | TGI [6]: > 100 µM | TGI [7]: > 100 µM | TGI [8]: > 100 µM | TGI [9]: > 100 µM | TGI [10]: > 100 µM | TGI [11]: > 100 µM | TGI [12]: > 100 µM | TGI [13]: > 100 µM | TGI [14]: > 100 µM | TGI [15]: > 100 µM | TGI [16]: > 100 µM | TGI [17]: > 100 µM | TGI [18]: > 100 µM | TGI [19]: > 100 µM | TGI [20]: > 100 µM | TGI [21]: > 100 µM | TGI [22]: > 100 µM | TGI [23]: > 100 µM | TGI [24]: > 100 µM | TGI [25]: > 100 µM | TGI [26]: > 100 µM | TGI [27]: > 100 µM | TGI [28]: > 100 µM | TGI [29]: > 100 µM | TGI [30]: > 100 µM | TGI [31]: > 100 µM | TGI [32]: > 100 µM | TGI [33]: > 100 µM | TGI [34]: > 100 µM | TGI [35]: > 100 µM | TGI [36]: > 100 µM | TGI [37]: > 100 µM | TGI [38]: > 100 µM | TGI [39]: > 100 µM | TGI [40]: > 100 µM | TGI [41]: > 100 µM | TGI [42]: > 100 µM | TGI [43]: > 100 µM | TGI [44]: > 100 µM | TGI [45]: > 100 µM | TGI [46]: > 100 µM | TGI [47]: > 100 µM | TGI [48]: > 100 µM | TGI [49]: > 100 µM | TGI [50]: > 100 µM | TGI [51]: > 100 µM | TGI [52]: > 100 µM | TGI [53]: > 100 µM | TGI [54]: > 100 µM | TGI [55]: > 100 µM

O=C(O)/C(Cl)=C(\Cl)C(=O)Nc1ccccc1
TGI [1]: > 100 µM | TGI [2]: > 100 µM | TGI [3]: > 100 µM | TGI [4]: > 100 µM | TGI [5]: > 100 µM | TGI [6]: > 100 µM | TGI [7]: > 100 µM | TGI [8]: > 100 µM | TGI [9]: > 100 µM | TGI [10]: > 100 µM | TGI [11]: > 100 µM | TGI [12]: > 100 µM | TGI [13]: > 100 µM | TGI [14]: > 100 µM | TGI [15]: > 100 µM | TGI [17]: > 100 µM | TGI [18]: > 100 µM | TGI [20]: > 100 µM | TGI [21]: > 100 µM | TGI [22]: > 100 µM | TGI [23]: > 100 µM | TGI [24]: > 100 µM | TGI [25]: > 100 µM | TGI [56]: > 100 µM | TGI [26]: > 100 µM | TGI [27]: > 100 µM | TGI [28]: > 100 µM | TGI [57]: > 100 µM | TGI [29]: > 100 µM | TGI [30]: > 100 µM | TGI [31]: > 100 µM | TGI [33]: > 100 µM | TGI [34]: > 100 µM | TGI [35]: > 100 µM | TGI [36]: > 100 µM | TGI [58]: > 100 µM | TGI [37]: > 100 µM | TGI [39]: > 100 µM | TGI [40]: > 100 µM | TGI [41]: > 100 µM | TGI [42]: > 100 µM | TGI [43]: > 100 µM | TGI [44]: > 100 µM | TGI [45]: > 100 µM | TGI [46]: > 100 µM | TGI [47]: > 100 µM | TGI [48]: > 100 µM | TGI [49]: > 100 µM | TGI [50]: > 100 µM | TGI [51]: > 100 µM | TGI [52]: > 100 µM | TGI [53]: > 100 µM | TGI [54]: > 100 µM | TGI [55]: > 100 µM

Cc1c(CCl)c(=O)oc2c(C)c3occ(CCl)c(=O)c3cc12
TGI [1]: > 100 µM | TGI [3]: 30.3 µM | TGI [4]: > 100 µM | TGI [5]: > 100 µM | TGI [6]: 56.4 µM | TGI [7]: 71.7 µM | TGI [8]: 30.9 µM | TGI [9]: 44.9 µM | TGI [10]: > 100 µM | TGI [11]: > 100 µM | TGI [12]: > 100 µM | TGI [13]: 44.8 µM | TGI [14]: 26.8 µM | TGI [15]: > 100 µM | TGI [16]: 20.2 µM | TGI [17]: > 100 µM | TGI [18]: 32 µM | TGI [19]: 41.8 µM | TGI [20]: 30.2 µM | TGI [21]: > 100 µM | TGI [22]: 23.6 µM | TGI [23]: > 100 µM | TGI [25]: 37.5 µM | TGI [56]: > 100 µM | TGI [26]: > 100 µM | TGI [28]: 30.8 µM | TGI [57]: 64.6 µM | TGI [29]: > 100 µM | TGI [30]: 14.2 µM | TGI [32]: > 100 µM | TGI [35]: > 100 µM | TGI [37]: 30.3 µM | TGI [38]: 30.5 µM | TGI [40]: > 100 µM | TGI [41]: 22.8 µM | TGI [42]: 83.7 µM | TGI [43]: 31.1 µM | TGI [44]: > 100 µM | TGI [45]: > 100 µM | TGI [46]: 35.4 µM | TGI [47]: 48.7 µM | TGI [48]: 32.9 µM | TGI [49]: > 100 µM | TGI [50]: > 100 µM | TGI [51]: 31.4 µM | TGI [52]: 54.7 µM | TGI [53]: 40.9 µM | TGI [54]: > 100 µM | TGI [55]: > 100 µM
